In ChEMBL document CHEMBL3585315, “Discovery of mammalian target of rapamycin (mTOR) kinase inhibitor CC-223” (J Med Chem, 2015):
Values belong to the molecule of their own block, whether it stands above or below them.

How the values were obtained:
[1] = Clearance in rat at 2 mg/kg, iv; format: ADME, organism-based; details: in vivo
Mus musculus [2] = species on record: Mus musculus; test: animal or person; details: PC-3, po, 8 h, read-out: INH
PC-3 [3] = details: Homo sapiens
cells = details: Homo sapiens, PC-3, 1 h
Mus musculus [4] = species on record: Mus musculus; test: animal or person; details: PC-3, po, 4 h, read-out: INH
[5] = Metabolic stability in rat S9 fraction assessed as compound remaining measured at 60 mins; format: ADME; details: read-out: Stability
PC-3 [6] = details: Homo sapiens, TDE = time-dependent effect
Mus musculus [7] = species on record: Mus musculus; test: animal or person; details: PC-3, po, 8 h, read-out: INH; remark: listed apart in the source
Mus musculus [8] = species on record: Mus musculus; test: animal or person; details: PC-3, po, 2 h, read-out: INH
Mus musculus [9] = species on record: Mus musculus; test: animal or person; details: PC-3, po, 24 h, read-out: INH
[10] = AUC (0 to infinity) in rat at 5 mg/kg, po; format: ADME, organism-based; parameters: dose 5 mg/kg, time infinity, route oral; details: in vivo
[11] = Oral bioavailability in rat at 5 mg/kg; format: ADME, organism-based; details: in vivo
Mus musculus [12] = species on record: Mus musculus; test: animal or person; details: PC-3, po, 24 h, read-out: INH; remark: listed apart in the source
Mus musculus [13] = species on record: Mus musculus; test: animal or person; details: PC-3, po, 4 h, read-out: INH; remark: listed apart in the source
[14] = target: Phosphatidylinositol 4,5-bisphosphate 3-kinase catalytic subunit alpha isoform (Homo sapiens, UniProt P42336); test: Inhibition of PI3K-alpha (unknown origin) by mobility shift assay
Mus musculus [15] = species on record: Mus musculus; test: animal or person; details: PC-3, po, 2 h, read-out: INH; remark: listed apart in the source
[16] = Cmax in rat at 5 mg/kg, po; format: ADME, organism-based; parameters: dose 5 mg/kg, route oral; details: in vivo
PC-3 [17] = test: Antitumor activity against human PC3 cells xenografted in mouse assessed as tumor volume reduction at 50 mg/kg, po qd for 21 days relative to control; format: functional; parameters: scale not given: the % may be the effect or the level left
[18] = Cmax in rat at 10 mg/kg, po; format: ADME, organism-based; parameters: dose 10 mg/kg, route oral; details: in vivo
[19] = Tmax in rat at 5 mg/kg, po; format: ADME, organism-based; details: in vivo
PC-3 [20] = details: Homo sapiens; remark: listed apart in the source
PC-3 [21] = test: Antitumor activity against human PC3 cells xenografted in mouse assessed as tumor volume reduction at 100 mg/kg, po bid with 10 hrs separation between morning and evening doses for 21 days relative to control; format: functional; parameters: scale not given: the % may be the effect or the level left
PC-3 [22] = details: Homo sapiens, TDE = time-dependent effect; remark: listed apart in the source
[23] = Tmax in rat at 10 mg/kg, po; format: ADME, organism-based; details: in vivo
[24] = AUC (0 to infinity) in rat at 10 mg/kg, po; format: ADME, organism-based; parameters: dose 10 mg/kg, route oral, time infinity; details: in vivo
[25] = Oral bioavailability in rat at 10 mg/kg; format: ADME, organism-based; details: in vivo
[26] = Inhibition of mTORC2 in human PC3 cells assessed as inhibition of AKT phosphorylation at S473 by sandwich immunoassay; format: cell-based; details: PC-3
PC-3 [27] = test: Cytotoxicity against human PC3 cells assessed as inhibition of cell proliferation after 3 days by WST1 assay; format: functional, cell-based; details: PC-3, 72 h
[28] = target: Serine/threonine-protein kinase mTOR (Homo sapiens, UniProt P42345); test: Inhibition of recombinant mTOR (unknown origin) using GST-p70S6 as substrate after 60 mins by TR-FRET analysis

Chain of Phosphatidylinositol 4,5-bisphosphate 3-kinase catalytic subunit alpha isoform (P42336 whole entry, canonical isoform): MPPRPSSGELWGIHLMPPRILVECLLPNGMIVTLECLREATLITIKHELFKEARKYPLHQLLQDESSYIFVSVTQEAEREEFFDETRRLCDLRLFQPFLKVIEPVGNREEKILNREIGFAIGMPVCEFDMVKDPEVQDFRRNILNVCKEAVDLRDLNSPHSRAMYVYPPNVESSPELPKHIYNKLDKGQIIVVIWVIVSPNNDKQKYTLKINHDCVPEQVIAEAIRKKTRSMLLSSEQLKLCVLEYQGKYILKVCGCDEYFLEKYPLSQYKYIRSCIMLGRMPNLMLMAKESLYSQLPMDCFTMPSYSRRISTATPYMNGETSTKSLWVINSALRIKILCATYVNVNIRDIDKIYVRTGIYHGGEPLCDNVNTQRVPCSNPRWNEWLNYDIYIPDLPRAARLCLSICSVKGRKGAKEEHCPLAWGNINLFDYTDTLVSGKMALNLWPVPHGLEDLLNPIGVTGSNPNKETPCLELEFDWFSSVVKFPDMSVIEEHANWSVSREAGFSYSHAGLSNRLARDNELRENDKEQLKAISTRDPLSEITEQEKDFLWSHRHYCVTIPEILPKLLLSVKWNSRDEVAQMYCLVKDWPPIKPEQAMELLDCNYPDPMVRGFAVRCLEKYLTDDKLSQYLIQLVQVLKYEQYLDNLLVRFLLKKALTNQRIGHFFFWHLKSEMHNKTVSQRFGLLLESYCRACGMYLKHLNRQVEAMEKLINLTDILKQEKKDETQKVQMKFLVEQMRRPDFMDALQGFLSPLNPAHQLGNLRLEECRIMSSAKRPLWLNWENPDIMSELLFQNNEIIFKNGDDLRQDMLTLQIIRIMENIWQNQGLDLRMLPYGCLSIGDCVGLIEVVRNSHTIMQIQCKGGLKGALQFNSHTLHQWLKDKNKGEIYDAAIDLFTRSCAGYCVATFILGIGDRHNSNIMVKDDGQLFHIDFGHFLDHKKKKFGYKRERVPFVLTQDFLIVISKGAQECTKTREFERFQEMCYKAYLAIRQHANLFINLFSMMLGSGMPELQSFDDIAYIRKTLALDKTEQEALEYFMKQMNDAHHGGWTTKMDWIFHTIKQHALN

Structure (SMILES): CO[C@H]1CC[C@H](N2CC(=O)Nc3ncc(-c4ccc(C(C)(C)O)nc4)nc32)CC1
- clearance [1]: 1.7 mL/min/kg
- inhibition in vivo at 100 mg/kg (Mus musculus [2]): 69%
- TGI (PC-3 [3]): Dose-dependent effect
- IC50 (cells): 0.35 µM
- inhibition in vivo at 100 mg/kg (Mus musculus [4]): 90%
- remaining at 1 h [5]: 94%
- TGI (PC-3 [6]): tde
- inhibition in vivo at 100 mg/kg (Mus musculus [7]): 85%
- inhibition in vivo at 100 mg/kg (Mus musculus [8]): 87%
- inhibition in vivo at 100 mg/kg (Mus musculus [9]): 61%
- AUC(0-inf) [10]: 90 µM·h
- bioavailability [11]: 70%
- inhibition in vivo at 100 mg/kg (Mus musculus [12]): 85%
- inhibition in vivo at 100 mg/kg (Mus musculus [13]): 62%
- IC50 [14]: 16.4 µM
- inhibition in vivo at 100 mg/kg (Mus musculus [15]): 75%
- Cmax [16]: 6300 nM
- Activity (PC-3 [17]): 90%

Structure (SMILES): CO[C@H]1CC[C@H](CN2C(=O)CNc3ncc(-c4ccc(C(C)(C)O)nc4)nc32)CC1
- remaining at 1 h [5]: 55%
- IC50 [14]: 4.7 µM

Structure (SMILES): CC(C)(O)c1ccc(-c2cnc3c(n2)N(C2CCOCC2)C(=O)CN3)cn1
- IC50 [14]: 3.2 µM

Structure (SMILES): CC(C)(O)c1ccc(-c2cnc3c(n2)N([C@H]2CC[C@H](O)CC2)C(=O)CN3)cn1
- AUC(0-inf) [10]: 9.23 µM·h
- IC50 [14]: 1.9 µM
- Cmax [16]: 2200 nM

Structure (SMILES): CC(C)(O)c1ccc(-c2cnc3[nH]c(=O)n(CCC4CCOCC4)c3n2)cn1
- clearance [1]: 15 mL/min/kg
- Tmax [19]: 0.5 h
- IC50 [26]: 0.638 µM
- remaining at 1 h [5]: 91%
- IC50 (PC-3 [27]): 2.36 µM
- AUC(0-inf) [10]: 4.8 µM·h
- IC50 [28]: 0.064 µM
- bioavailability [11]: 43%
- IC50 [14]: > 30 µM
- Cmax [16]: 1800 nM

Further lines, with some results ahead:

- IC50 [14]: 0.2 µM
Structure (SMILES): Cc1cc(-c2nc[nH]n2)ccc1-c1cnc2c(n1)N(CCC1CCOCC1)CC(=O)N2

- clearance [1]: 13.8 mL/min/kg
- Cmax [18]: < 2.13 nM
- remaining at 1 h [5]: 61%
Structure (SMILES): O=C1CN(CCC2CCOCC2)c2nc(-c3ccc(-c4nc[nH]n4)cc3)cnc2N1

- IC50 [14]: 4.7 µM
Structure (SMILES): CC(C)(O)c1ccc(-c2cnc3c(n2)N(C2CCOCC2)CC(=O)N3)cn1

- remaining at 1 h [5]: 16%
- IC50 [14]: 17.7 µM
Structure (SMILES): CC(C)(O)c1ccc(-c2cnc3c(n2)N(CC2CCCCC2)CC(=O)N3)cn1

- clearance [1]: 23 mL/min/kg
- Tmax [19]: 1.5 h
- IC50 (cells): 0.11 µM
- remaining at 1 h [5]: 95%
- AUC(0-inf) [10]: 11 µM·h
- bioavailability [11]: 100%
- Cmax [16]: 1500 nM
Structure (SMILES): CC(C)(O)c1ccc(-c2cnc3c(n2)N(CCC2CCOCC2)CC(=O)N3)cn1
- TGI (PC-3 [20]): Dose-dependent effect
- inhibition in vivo at 100 mg/kg (Mus musculus [2]): 67%
- inhibition in vivo at 100 mg/kg (Mus musculus [4]): 63%
- Activity (PC-3 [21]): 72%
- inhibition in vivo at 100 mg/kg (Mus musculus [7]): 64%
- inhibition in vivo at 100 mg/kg (Mus musculus [8]): 87%
- inhibition in vivo at 100 mg/kg (Mus musculus [9]): 28%
- inhibition in vivo at 100 mg/kg (Mus musculus [12]): 0%
- inhibition in vivo at 100 mg/kg (Mus musculus [13]): 63%
- inhibition in vivo at 100 mg/kg (Mus musculus [15]): 74%
- TGI (PC-3 [22]): tde

- remaining at 1 h [5]: 39%
- IC50 [14]: 7.6 µM
Structure (SMILES): CO[C@H]1CC[C@@H](CN2CC(=O)Nc3ncc(-c4ccc(C(C)(C)O)nc4)nc32)CC1

- clearance [1]: 32 mL/min/kg
- Cmax [18]: 24 nM
- remaining at 1 h [5]: 93%
- Tmax [23]: 1 h
- AUC(0-inf) [24]: 0.11 µM·h
- bioavailability [25]: 0.85%
Structure (SMILES): O=c1[nH]c2ncc(-c3ccc(-c4nc[nH]n4)cc3)nc2n1CCC1CCOCC1

- IC50 (cells): 0.32 µM
- remaining at 1 h [5]: 100%
- IC50 [14]: > 30 µM
Structure (SMILES): CC(C)(O)c1ccc(-c2cnc3c(n2)N(CC2CCOCC2)CC(=O)N3)cn1
- inhibition in vivo at 100 mg/kg (Mus musculus [2]): 71%
- TGI (PC-3 [3]): Dose-dependent effect
- inhibition in vivo at 100 mg/kg (Mus musculus [4]): 86%
- TGI (PC-3 [6]): tde
- inhibition in vivo at 100 mg/kg (Mus musculus [7]): 88%
- inhibition in vivo at 100 mg/kg (Mus musculus [8]): 88%
- inhibition in vivo at 100 mg/kg (Mus musculus [9]): 65%
- inhibition in vivo at 100 mg/kg (Mus musculus [12]): 83%
- inhibition in vivo at 100 mg/kg (Mus musculus [13]): 73%
- inhibition in vivo at 100 mg/kg (Mus musculus [15]): 85%
- Activity (PC-3 [17]): 84%
